Experimental data taken from US20170247326A1, “Substituted Pyrrolidine Carboxamide Compounds” (EPIZYME, INC., priority 2014, published 2017).

target: T1, SMYD2 (Homo sapiens, UniProt Q9NRG4); assay: SMYD2 biochemical assay (3H-SAM, biotinylated peptide substrate, Flashplate); conditions: Table 1; average of n = 1 to n = 50; read-out: SMYD2 Biochem IC50
T1 construct: Full length SMYD2 (NP_064582.2) was cloned; His6 (N, cleaved yes); FLAG (N); made in house; host or cells: Sf9 insect cells
Excerpt: S-adenosylmethionine (SAM), S-adenosylhomocysteine (SAH), bicine, Tween20, dimethylsulfoxide (DMSO), bovine skin gelatin (BSG), and Tris(2-carboxyethyl)phosphine hydrochloride (TCEP) were purchased from Sigma-Aldrich at the highest level of purity possible. ^3H-SAM was purchase from American Radiolabeled Chemicals with a specific activity of 80 Ci/mmol. 384-well streptavidin Flashplates were purchased from PerkinElmer.
Peptide was synthesized with a N-terminal linker-affinity tag motif and a C-terminal amide cap by 21st Century Biochemicals. The peptide was high high-performance liquid chromatography (HPLC) purified to greater than 95% purity and confirmed by liquid chromatography mass spectrometry (LC-MS). The sequence was […](K-Biot)-amide. (SEQ ID NO: 3)
Full length SMYD2 (NP_064582.2) was cloned into a pFastbac-Htb-lic vector with an N-terminal His6 tag and FLAG tag, preceded by a TEV protease cleavage site. The protein was expressed in Sf9 insect cells. Cells were resuspended in lysis buffer (25 mM HEPES-NaOH, pH 7.5, 200 mM NaCl, 5% glycerol, and 5 mM […] and lysed by sonication. The protein was purified by Ni-NTA (Qiagen), followed by TEV cleavage to remove the His6 tag, subtractive Ni-NTA (Qiagen), and gel filtration chromatography using an S200 column (GE Healthcare). Purified protein was stored in 20 mM Tris-HCl, pH 8.0, 100 mM NaCl, and 1 mM TCEP.
General Procedure for SMYD2 Enzyme Assays on Peptide Substrates
The assays were all performed in a buffer consisting of 20 mM Bicine (pH=7.6), 1 mM TCEP, 0.005% Bovine Skin Gelatin, and 0.002% Tween20, prepared on the day of use. Compounds in 100% DMSO (1 ul) were spotted into a polypropylene 384-well V-bottom plates (Greiner) using a Platemate Plus outfitted with a 384-channel head (Thermo Scientific). DMSO (1 ul) was added to Columns 11, 12, 23, 24, rows A-H for the maximum signal control and 1 ul of SAH, a known product and inhibitor of SMYD2, was added to columns 11, 12, 23, 24, rows I-P for the minimum signal control. A cocktail (40 ul) containing the SMYD2 enzyme was added by Multidrop Combi (Thermo-Fisher). The compounds were allowed to incubate with SMYD2 for 30 min at room temperature, then a cocktail (10 ul) containing ^3H-SAM and peptide was added to initiate the reaction (final volume=51 ul). The final concentrations of the components were as follows: SMYD2 was 1.5 nM, ^3H-SAM was 10 nM, and peptide was 60 nM, SAH in the minimum signal control wells was 1000 uM, and the DMSO concentration was 2%. The assays were stopped by the addition of non-radioactive SAM (10 ul) to a final concentration of 600 uM, which dilutes the ^3H-SAM to a level where its incorporation into the peptide substrate is no longer detectable. 50 ul of the reaction in the 384-well polypropylene plate was then transferred to a 384-well Flashplate and the biotinylated peptides were allowed to bind to the streptavidin surface for at least 1 hour before being washed three times with 0.1% Tween20 in a Biotek ELx405 plate washer. The plates were then read in a PerkinElmer TopCount plate reader to measure the quantity of ^3H-labeled peptide bound to the Flashplate surface, measured as disintegrations per minute (dpm) or alternatively, referred to as counts per minute (cpm).
Where dpm=disintegrations per minute, cmpd=signal in assay well, and min and max are the respective minimum and maximum signal controls.
Where top and bottom are the normally allowed to float, but may be fixed at 100 or 0 respectively in a 3-parameter fit. The Hill Coefficient normally allowed to float but may also be fixed at 1 in a 3-parameter fit. I is the compound concentration.
SMYD2 biochemical assay data for representative Compounds of the Disclosure are presented in Tables 1, 3, and 4 in the column titled “SMYD2 Bicohem IC50 (μM).”

T1 sequence (Q9NRG4 whole entry): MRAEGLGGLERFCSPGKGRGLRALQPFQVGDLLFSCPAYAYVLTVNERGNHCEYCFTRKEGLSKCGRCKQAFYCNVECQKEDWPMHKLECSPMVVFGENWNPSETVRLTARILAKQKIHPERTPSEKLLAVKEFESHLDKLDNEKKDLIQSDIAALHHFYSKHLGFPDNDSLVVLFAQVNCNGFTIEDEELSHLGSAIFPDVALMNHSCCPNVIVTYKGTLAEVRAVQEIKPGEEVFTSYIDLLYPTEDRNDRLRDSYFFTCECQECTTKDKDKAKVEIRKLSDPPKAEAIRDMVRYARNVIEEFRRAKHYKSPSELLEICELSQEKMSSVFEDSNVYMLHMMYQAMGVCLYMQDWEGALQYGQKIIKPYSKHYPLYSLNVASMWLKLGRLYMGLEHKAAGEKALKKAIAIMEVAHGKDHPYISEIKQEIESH

First: CCc1cc(C(=O)N[C@@H]2CN(C3CC3)C[C@@H]2C)ns1 (racemic) [compound 12, (±)-cis-N-(1-cyclopropyl-4-methylpyrrolidin-3-yl)-5-ethylisothiazole-3-carboxamide]
Second: C[C@@H]1CN(C2CC2)C[C@@H]1NC(=O)c1ccc2c(c1)OC(F)(F)O2 (racemic) [compound 2, (±)-cis-N-(1-cyclopropyl-4-methylpyrrolidin-3-yl)-2,2-difluorobenzo[d][1,3]dioxole-5-carboxamide]
The IC50 of the first is lower: 7.1 µM for the first, greater than 50 µM for the second.

C[C@H]1CN(C2CC2)C[C@H]1NC(=O)c1ccc(N2CCCC2)cc1 (racemic) [compound 21, (±)-cis-N-(1-cyclopropyl-4-methylpyrrolidin-3-yl)-4-(pyrrolidin-1-yl)benzamide] showed an IC50 greater than 50 µM.

same assay, conditions: Table 3; average of n = 1 to n = 50; read-out: SMYD2 Biochem IC50

Compared with CC(C)N1C[C@H](C)[C@H](NC(=O)c2cnc(C3CC3)o2)C1 (racemic) [compound 78, (±)-cis-2-cyclopropyl-N-[4-methyl-1-(propan-2-yl)pyrrolidin-3-yl]-1,3-oxazole-5-carboxamide], CC(C)N1C[C@H](C)[C@H](NC(=O)c2ncc(C3CC3)o2)C1 (racemic) [compound 76, (±)-cis-5-cyclopropyl-N-[4-methyl-1-(propan-2-yl)pyrrolidin-3-yl]-1,3-oxazole-2-carboxamide] is lower in IC50: greater than 50 µM for the first, 6.77 µM for the second. The second is the more potent here.

CC(C)N1C[C@H](C)[C@H](NC(=O)c2nc(C3CC3)cs2)C1 (racemic) [compound 35, (±)-cis-4-cyclopropyl-N-[4-methyl-1-(propan-2-yl)pyrrolidin-3-yl]-1,3-thiazole-2-carboxamide] and CC(C)N1C[C@@H](C)[C@H](NC(=O)c2ncc(C3CC3)s2)C1 (racemic) [compound 72, (±)-trans-5-cyclopropyl-N-[4-methyl-1-(propan-2-yl)pyrrolidin-3-yl]-1,3-thiazole-2-carboxamide] cannot be ordered by IC50: greater than 50 µM for the first, greater than 50 µM for the second.

CC(C)N1C[C@@H](C)[C@H](NC(=O)c2cnc(C3CC3)cn2)C1 (racemic) [compound 52, (±)-trans-5-cyclopropyl-N-[4-methyl-1-(propan-2-yl)pyrrolidin-3-yl]pyrazine-2-carboxamide] and CC(C)N1C[C@@H](C)[C@H](NC(=O)c2cncc(C3CC3)n2)C1 (racemic) [compound 43, (±)-trans-6-cyclopropyl-N-[4-methyl-1-(propan-2-yl)pyrrolidin-3-yl]pyrazine-2-carboxamide] cannot be ordered by IC50: greater than 50 µM for the first, greater than 50 µM for the second.

CC(C)N1C[C@@H](C)[C@H](NC(=O)CCN2CCCC2)C1 (racemic) [compound 55, (±)-trans-N-[4-methyl-1-(propan-2-yl)pyrrolidin-3-yl]-3-(pyrrolidin-1-yl)propanamide] and CC(C)N1C[C@H](C)[C@H](NC(=O)c2ccc(N3CCCC3)cc2)C1 (racemic) [compound 30, (±)-cis-N-[4-methyl-1-(propan-2-yl)pyrrolidin-3-yl]-4-(pyrrolidin-1-yl)benzamide] cannot be ordered by IC50: greater than 50 µM for the first, greater than 50 µM for the second.

Compared with CC(C)N1C[C@@H](C)[C@H](NC(=O)c2ncc(C3CC3)[nH]2)C1 (racemic) [compound 74, (±)-trans-5-cyclopropyl-N-[4-methyl-1-(propan-2-yl)pyrrolidin-3-yl]-1H-imidazole-2-carboxamide], CC(C)N1C[C@@H](C)[C@H](NC(=O)c2c[nH]c(C3CC3)n2)C1 (racemic) [compound 71, (±)-trans-2-cyclopropyl-N-[4-methyl-1-(propan-2-yl)pyrrolidin-3-yl]-1H-imidazole-4-carboxamide] is higher in IC50: 24.3 µM for the first, greater than 50 µM for the second. The first is the more potent here.

Compared with CC(C)N1CC(NC(=O)c2cc(C3CC3)cnn2)CC1C (stereo not drawn) [compound 120, 5-cyclopropyl-N-(1-isopropyl-5-methylpyrrolidin-3-yl)pyridazine-3-carboxamide], CC(C)N1C[C@@H](C)[C@@H](NC(=O)c2cc(C3CC3)cnn2)C1 (stereo in doubt) [compound 110, (±)-cis-5-cyclopropyl-N-[4-methyl-1-(propan-2-yl)pyrrolidin-3-yl]pyridazine-3-carboxamide] is 27-fold lower in IC50: 11.5 µM for the first, 0.424 µM for the second.

Going from CC(C)N1C[C@@H](C)[C@H](NC(=O)c2nnc(C3CC3)s2)C1 (racemic) [compound 48, (±)-trans-5-cyclopropyl-N-[4-methyl-1-(propan-2-yl)pyrrolidin-3-yl]-1,3,4-thiadiazole-2-carboxamide] to CC(C)N1C[C@H](C)[C@H](NC(=O)c2ccc(C3CC3)nn2)C1 (racemic) [compound 109, (±)-cis-6-cyclopropyl-N-[4-methyl-1-(propan-2-yl)pyrrolidin-3-yl]pyridazine-3-carboxamide], the IC50 rises from 39.5 µM to greater than 50 µM.

CC(C)N1C[C@@H](C)[C@H](NC(=O)c2nccc(C3CC3)n2)C1 (racemic) [compound 67, (±)-trans-4-cyclopropyl-N-[4-methyl-1-(propan-2-yl)pyrrolidin-3-yl]pyrimidine-2-carboxamide] and CC(C)N1C[C@@H](C)[C@H](NC(=O)c2ncc(C3CC3)cn2)C1 (racemic) [compound 66, (±)-trans-5-cyclopropyl-N-[4-methyl-1-(propan-2-yl)pyrrolidin-3-yl]pyrimidine-2-carboxamide] cannot be ordered by IC50: greater than 50 µM for the first, greater than 50 µM for the second.

First: CC(C)N1C[C@H](C)[C@H](NC(=O)c2cc3c(cn2)OC(F)(F)O3)C1 (racemic) [compound 75, (±)-cis-2,2-difluoro-N-[4-methyl-1-(propan-2-yl)pyrrolidin-3-yl]-2H-[1,3]dioxolo[4,5-c]pyridine-6-carboxamide]
Second: CC(C)c1cnnc(C(=O)N[C@@H]2CN(C(C)C)C[C@@H]2C)c1 (racemic) [compound 118, (±)-cis-5-isopropyl-N-(1-isopropyl-4-methylpyrrolidin-3-yl)pyridazine-3-carboxamide]
The IC50 of the first is higher: greater than 50 µM for the first, 10.4 µM for the second.

CC(C)N1C[C@@H](C)[C@H](NC(=O)c2cn(C(C)C)nn2)C1 (racemic) [compound 24, (±)-trans-N-[4-methyl-1-(propan-2-yl)pyrrolidin-3-yl]-1-(propan-2-yl)-1H-1,2,3-triazole-4-carboxamide] and CC(C)N1C[C@@H](C)[C@H](NC(=O)c2ccn(C(C)C)n2)C1 (racemic) [compound 45, (±)-trans-N-[4-methyl-1-(propan-2-yl)pyrrolidin-3-yl]-1-(propan-2-yl)-1H-pyrazole-3-carboxamide] cannot be ordered by IC50: greater than 50 µM for the first, greater than 50 µM for the second.

CC(C)N1C[C@H](C)[C@H](NC(=O)c2cc(C3CC3)c[nH]c2=O)C1 (racemic) [compound 82, (±)-cis-5-cyclopropyl-N-[4-methyl-1-(propan-2-yl)pyrrolidin-3-yl]-2-oxo-1,2-dihydropyridine-3-carboxamide] and CC(C)N1C[C@H](C)[C@H](NC(=O)c2csnc2C2CC2)C1 (racemic) [compound 92, (±)-cis-3-cyclopropyl-N-[4-methyl-1-(propan-2-yl)pyrrolidin-3-yl]-1,2-thiazole-4-carboxamide] are within 1.5-fold of each other in IC50: 13.6 µM for the first, 19.6 µM for the second.

same assay, conditions: Table 4; average of n = 1 to n = 50; read-out: SMYD2 Biochem IC50

CNCCS(=O)(=O)N1C[C@H](C)[C@H](NC(=O)c2cc(C3CC3)cnn2)C1 (racemic) [compound 128, rac-5-cyclopropyl-N-((3R,4R)-4-methyl-1-((2-(methylamino)ethyl)sulfonyl)pyrrolidin-3-yl)pyridazine-3-carboxamide] and C[C@H]1CN(S(=O)(=O)CCN)C[C@H]1NC(=O)c1cc(C2CC2)cnn1 (racemic) [compound 127, rac-N-((3R,4R)-1-((2-aminoethyl)sulfonyl)-4-methylpyrrolidin-3-yl)-5-cyclopropylpyridazine-3-carboxamide] cannot be ordered by IC50: greater than 50 µM for the first, greater than 50 µM for the second.
